In patent publication US10034886B2, “GLP-1 receptor modulators” (Celgene International II SÀRL, priority 2014, dated 2018):
Where two headings read alike, the source gives them in different places.

Biological target: T1, GLP-1R (Homo sapiens, UniProt P43220)
T1 construct: host or cells: GLP-1R CRE-bla CHO-K1 cells
Test: EC20 GLP-1(9-36) PAM cAMP assay: dose response of compound in the presence of fixed concentration of GLP-1(9-36)
Type: cell-based
Details: GLP-1R CRE-bla CHO-K1 cells, read-out: EC20 GLP-1(9-36) PAM EC50
Protocol: EC20 GLP-1(9-36) PAM cAMP Assay: Dose Response of Compound in the Presence of Fixed Concentration of GLP-1 (9-36).
GLP-1R CRE-bla CHO-K1 cells cultured in growth medium (DMEM-High glucose, 10% dialyzed FBS, 0.1 mM NEAA, 25 mM Hepes, 100 U/mL penicillin/100 μg/mL streptomycin, 5 μg/mL Blasticidin, 600 μg/mL Hygromycin) were trypsinized and plated in suspension into 384 well white flat bottom plates at 5000 cells/well in 12 μL assay buffer (Hanks Balanced Salt solution, 10 mM hepes, 0.1% BSA, pH 7.4). A 5× compound dose response curve (12-point) was generated in assay buffer containing 1.5 mM IBMX, 4% DMSO. GLP-1(9-36) was diluted to 4.2 μM in assay buffer containing 1.5 mM IMBX and 4% DMSO. The 5× compound dose response was added (3 μL), followed by 0.5 μL of GLP-1(9-36) and cells were incubated for 30 min at 37° C. Direct detection of cAMP was carried out using DiscoveRx HitHunter cAMP kit according to manufacturer's instructions and luminescence was read using a SpectraMax M5 plate reader. Luminescence was converted to total cAMP using a cAMP standard curve and data was analyzed by non-linear regression to determine the EC50 and Emax.
GLP-1(7-36): […]-NH2 (SEQ ID NO: 2). GLP-1(9-36): […]-NH2 (SEQ ID NO: 3). GLP-1(7-36) was purchased from GenScript. GLP-1(9-36) was purchased from Biopeptide Co., Inc.
The EC20GLP-1(9-36) PAM Activity range is denoted as follows: + denotes activity <0.8 μM, ++ denotes activity between 0.8 and 2.5 μM, +++ denotes activity between 2.5 and 5 μM, and ++++ denotes activity 5 to 10 μM.

[1] = dose response of compound in presence of fixed concentration of GLP-1(9-36)
[2] = compound dose response with fixed concentration of GLP-1(9-36)

T1 sequence (P43220 24-463): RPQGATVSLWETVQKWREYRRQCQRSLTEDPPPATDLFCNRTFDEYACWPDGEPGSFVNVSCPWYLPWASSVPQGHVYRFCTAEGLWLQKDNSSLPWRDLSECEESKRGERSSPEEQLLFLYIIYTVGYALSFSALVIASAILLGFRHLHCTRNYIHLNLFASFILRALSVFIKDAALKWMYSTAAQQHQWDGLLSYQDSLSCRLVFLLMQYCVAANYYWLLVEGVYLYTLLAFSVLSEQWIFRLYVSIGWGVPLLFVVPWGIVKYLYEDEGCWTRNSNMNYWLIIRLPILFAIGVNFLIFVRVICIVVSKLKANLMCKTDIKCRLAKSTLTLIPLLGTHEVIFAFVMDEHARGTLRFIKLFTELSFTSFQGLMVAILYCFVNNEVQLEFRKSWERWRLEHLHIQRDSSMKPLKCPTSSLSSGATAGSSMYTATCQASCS
T1 sequence (P01275 100-127 partner limits assumed): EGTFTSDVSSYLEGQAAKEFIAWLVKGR

Row | SMILES | EC50 [1] [nM] | EC50 [2] [nM]
1 | Cc1cc(-c2cnc(-c3ccc(C[C@H](NC(=O)c4ccc(C(C)(C)C)s4)C(=O)N4CC[C@H](C(=O)O)C4)cc3)nc2)ccc1OC(C)C [Compound 1087] | < 800 | 
2 | CCCCCCCOc1ccc(-c2cnc(-c3ccc(C[C@H](NC(=O)c4ccc(C(C)(C)C)s4)C(=O)N(CC)CCO)cc3)nc2)cc1 [Compound 969] | 2500 to 5000 | 
3 | CCCc1ccc(-c2ccc(-c3cnc(-c4ccc(C[C@H](NC(=O)c5ccc(C(F)(F)F)cc5)C(=O)N5CC(C(=O)O)C5)cc4)nc3)c(F)c2)cc1 [Compound 1400] |  | < 800
4 | CCCCCCCOc1ccc(-c2cnc(-c3ccc(C[C@H](NC(=O)c4ccc(C(C)(C)C)s4)C(=O)NS(=O)(=O)CC(=O)OC)cc3)nc2)cc1 [Compound 422, methyl (S)-2-(N-(2-(5-(tert-butyl)thiophene-2-carboxamido)-3-(4-(5-(4-(heptyloxy)phenyl)pyrimidin-2-yl)phenyl)propanoyl)sulfamoyl)acetate] | < 800 | 
5 | C[C@@H](NC(=O)[C@H](Cc1ccc(-c2ncc(N3CCN(CC4CCCCC4)C3=O)cn2)cc1)NC(=O)c1ccc(C(C)(C)C)s1)C(=O)O [Compound 1267] |  | 5000 to 10000
6 | CCC[C@H]1CC[C@H](C2CCN(c3cnc(-c4ccc(C[C@H](NC(=O)c5ccc(C(C)C)s5)C(=O)N5CC(C(=O)O)C5)cc4)nc3)CC2)CC1 [Compound 1534] |  | < 800
7 | CCCCCCCOc1ccc(-c2cnc(-c3ccc(C[C@H](NC(=O)c4ccc(C(C)(C)C)cc4)C(=O)N4CC(OC)CC4C(=O)O)cc3)nc2)cc1 (some centres unmarked) [Compound 624] | < 800 | 
8 | CC[C@H]1CC[C@H](c2ccc(-c3cnc(-c4ccc(C[C@H](NC(=O)c5ccc(CC(C)C)cc5)C(=O)O)cc4)nc3)cc2)CC1 [Compound 1383] |  | 800 to 2500
9 | CCCc1ccc(C2CCN(c3cnc(-c4ccc(C[C@H](NC(=O)c5ccc(C(C)(C)C)s5)C(=O)N5CC(C(=O)O)C5)cc4)nc3)CC2)nn1 [Compound 1501] |  | 5000 to 10000
10 | CC(C)(C)c1ccc(C(=O)N[C@@H](Cc2ccc(-c3ncc(-c4ccc(-c5ccc(C(F)(F)F)c(F)c5F)cc4F)cn3)cc2)C(=O)N2CC(C(=O)O)C2)s1 [Compound 1216] |  | < 800
11 | CCCCCCCOc1ccc(-c2cnc(-c3ccc(C[C@H](NC(=O)c4ccc(C(C)(C)C)s4)C(=O)N4C(C(=O)O)CCC4C(=O)O)cc3)nc2)cc1 (some centres unmarked) [Compound 614] | 800 to 2500 | 
12 | C[C@@H](NC(=O)[C@H](Cc1ccc(-c2ncc(-c3ccc(-c4ccc(F)cc4F)cc3)cn2)cc1)NC(=O)c1ccc(C(C)(C)C)s1)C(=O)O [Compound 1149] | 5000 to 10000 | 
13 | CC(C)CCCOc1ccc(-c2cnc(-c3ccc(C[C@H](NC(=O)c4ccc(C(C)C)cc4)C(=O)N4CC(C(=O)O)C4)cc3)nc2)cc1 [Compound 1227] |  | 800 to 2500
14 | CCCc1ccc(-c2ccc(-c3cnc(-c4ccc(C[C@H](NC(=O)c5ccc(C(C)(C)C)s5)C(=O)N[C@H](C)C(=O)O)cc4)nc3)c(F)c2)cc1 [Compound 1320] |  | < 800
15 | CCCCCCCOc1ccc(-c2cnc(-c3ccc(C[C@H](NC(=O)c4ccc(C(C)(C)C)s4)C(=O)N4C[C@H](C#N)C[C@H]4C(=O)O)cc3)nc2)cc1 [Compound 641] | < 800 | 
16 | Cc1cc(-c2ccc(-c3cnc(-c4ccc(C[C@H](NC(=O)c5ccc(C(C)(C)C)s5)C(=O)N[C@H](C)C(=O)O)cc4)nc3)c(F)c2)ccc1OC(F)(F)F [Compound 1175] | < 800 | 
17 | CCCCCCCOc1ccc(-c2cnc(-c3ccc(C[C@H](NC(=O)c4ccc(C(C)(C)C)s4)C(=O)NC4CNC4)cc3)nc2)cc1 [Compound 985] | 2500 to 5000 | 
18 | CC1(C)CCC(c2ccc(-c3cnc(-c4ccc(C[C@H](NC(=O)c5ccc(C(C)(C)C)s5)C(=O)O)cc4)nc3)cc2)CC1 [Compound 1344] |  | 800 to 2500
19 | CC(C)(C)c1ccc(-c2ccc(-c3cnc(-c4ccc(C[C@H](NC(=O)c5ccc(C(C)(C)C)s5)C(=O)O)cc4)nc3)cc2)cc1 [Compound 1348] |  | 2500 to 5000
20 | CCCCCCCOc1ccc(-c2cnc(-c3ccc(C[C@H](NC(=O)c4ccc(C(C)(C)C)s4)C(=O)N4CC(C(=O)NS(=O)(=O)CC(=O)O)C4)cc3)nc2)cc1 [Compound 649] | 800 to 2500 | 
